Experiments:
Type in all cases: in vivo
Alternaria solani = test: Fungicidal control of early blight on tomatoes, protective spray; conditions: tomato plants, untreated plants infected to 90%
Protocol: The active compounds, separately or together, were formulated as a 10% emulsion in a mixture of 70% by weight of cyclohexanone, 20% by weight of Nekanil® LN (Lutensol® AP6, wetting agent having emulsifying and dispersant action based on ethoxylated alkylphenols) and 10% by weight of Wettol® EM (nonionic emulsifier based on ethoxylated castor oil) and diluted with water to the desired concentration. Young seedlings of tomato plants of the variety “Groβe Fleischtomate St. Pierre” were grown in pots to the 2 to 4 leaf stage. These plants were sprayed to run-off with an aqueous suspension, containing the concentration of active ingredient mentioned in the table below, prepared from a stock solution containing 10% of the active ingredient, 85% cyclohexanone and 5% emulsifier. The next day, the treated plants were inoculated with an aqueous suspension of Alternaria solani containing 0.2×10^6 spores per ml. Then the trial plants were immediately transferred to a humid chamber. After 6 days at 20 to 23° C. and a relative humidity close to 100%, the extent of fungal attack on the leaves was visually assessed as % diseased leaf area. The test was conducted as described in Comparison trial 1.

[1] = test system: Blumeria graminis f. sp. tritici; test: Fungicidal control of powdery mildew on wheat, protective spray; conditions: 63 ppm active ingredient, assessed after 7 days, untreated plants infected to 85%
Excerpt: The active compounds, separately or together, were formulated as a 10% emulsion in a mixture of 70% by weight of cyclohexanone, 20% by weight of Nekanil® LN (Lutensol® AP6, wetting agent having emulsifying and dispersant action based on ethoxylated alkylphenols) and 10% by weight of Wettol® EM (nonionic emulsifier based on ethoxylated castor oil) and diluted with water to the desired concentration. The first fully developed leaves of pot grown wheat of the variety “Kanzler” were sprayed to run-off with an aqueous suspension, containing the concentration of active ingredient or their mixture mentioned in the table below, prepared from a stock solution containing 10% of the active ingredient, 85% cyclohexanone and 5% emulsifier. The next day the treated plants were inoculated with spores of Blumeria graminis f. sp. tritici by shaking heavily infestated stock plants over the treated pots. After cultivation in the greenhouse for 7 days at 22-26° C. and a relative humidity between 60 to 90% the extent of fungal attack on the leaves was visually assessed as % diseased leaf area. The test was conducted as described in Comparison trial 2.

Plasmopara viticola = test: Fungicidal control of grape downy mildew (Comparison Trial 3, inoculation the next day); conditions: 250 ppm active ingredient; grape cuttings; inoculated next day; untreated plants infected to 80%
Protocol: The active compounds, separately or together, were formulated as a 10% emulsion in a mixture of 70% by weight of cyclohexanone, 20% by weight of Nekanil® LN (Lutensol® AP6, wetting agent having emulsifying and dispersant action based on ethoxylated alkylphenols) and 10% by weight of Wettol® EM (nonionic emulsifier based on ethoxylated castor oil) and diluted with water to the desired concentration. Grape cuttings of the cultivar “Müller-Thurgau” were grown in pots to the 4 to 5 leaf stage. These plants were sprayed to run-off with an aqueous suspension, containing the concentration of active ingredient or their mixture mentioned in the table below, prepared from a stock solution containing 10% of the active ingredient, 85% cyclohexanone and 5% emulsifier. The plants were allowed to air-dry. The next day they were inoculated with an aqueous spore suspension of Plasmopara viticola by spraying it at the lower leaf-side. Then the trial plants were immediately transferred for 24 h to a humid chamber with 22-24° C. and a relative humidity close to 100%. For a period of 5 days, cultivation followed in a greenhouse at 20-25° C. and a relative humidity about 50-80%. To stimulate the outbreak of the disease symptoms, the plants were transferred to a humid chamber again for 24 hours. Then the extent of fungal attack on the lower leaf surface was visually assessed as % diseased leaf area.

| SMILES | infection (% diseased leaf area) (Alternaria solani; 250 ppm active ingredient) | also measured |
| --- | --- | --- |
| CCC(C)Nc1c(-c2ccc(F)cc2C)c(Cl)nc2ncnn12 (racemic) [I-35] | no infection |  |
| Cc1cc(F)ccc1-c1c(Cl)nc2ncnn2c1NC(C)C(C)C (racemic) [I-38] | no infection |  |
| Cc1cc(F)ccc1-c1c(Cl)nc2ncnn2c1NC(C)C(C)(C)C (racemic) [I-41] | no infection |  |
| Cc1cc(F)ccc1-c1c(Cl)nc2ncnn2c1NC(C)C(F)(F)F (racemic) [I-44] | no infection |  |
| Cc1ccccc1-c1c(Cl)nc2ncnn2c1NC(C)C(F)(F)F (centres unmarked) [Compound A] |  | infection (% diseased leaf area) (Alternaria solani; 63 ppm active ingredient, assessed after 6 days): 15%; infection (% diseased leaf area) [1]: 30%; infection (% diseased leaf area, lower leaf surface) (Plasmopara viticola): 80% |
| C=C(C)CN(CC)c1c(-c2c(C)cccc2F)c(Cl)nc2ncnn12 [I-7] | no infection |  |
| Cc1cccc(F)c1-c1c(Cl)nc2ncnn2c1N1CCC(C)CC1 [I-9] | no infection |  |
| Cc1cccc(F)c1-c1c(Cl)nc2ncnn2c1NC1CCCC1 [I-10] | no infection |  |
| C=C(C)CN(CC)c1c(-c2ccc(F)cc2C)c(Cl)nc2ncnn12 [I-28] | no infection |  |
| Cc1cc(F)ccc1-c1c(Cl)nc2ncnn2c1N1CCC(C)CC1 [I-30] | no infection |  |
| Cc1cc(Cl)ccc1-c1c(Cl)nc2ncnn2c1N1CCC(C)CC1 [I-66] | no infection |  |
| Cc1cc(Cl)ccc1-c1c(Cl)nc2ncnn2c1NCC(F)(F)F [I-83] | no infection |  |

From patent US20040162286A1, “Substituted 6-(2-tolyl)-triazolopyrimidines as fungicides” (priority 2001, published 2004)
